Data reported in the CombiSolv-Exp solvation set (Vermeire and Green 2021).

Assay: solvent given as SMILES

CCCCCCC
Settings | solvation free energy, 298 K [kcal/mol]
in BrC(Br)C(Br)Br | -3.34
in Brc1ccccc1 | -4.35
in C1CCC(C2CCCCC2)CC1 | -4.48
in C1CCCCC1 | -4.83
in C1CCOC1 | -4.58
in C1COCCO1 | -3.86
in C=CCCCC | -4.71
in C=CCCCCCC | -4.63
in C=CCCCCCCCC | -4.55
in C=CCCCCCCCCCCCCCC | -4.24
in CC1CCS(=O)(=O)C1 | -2.68
in CC1COC(=O)O1 | -2.54
in CC#N | -3.18
in CC(=O)CC(C)C | -4.36
in CC(=O)N(C)C | -3.36
in CC(=O)O | -3.43
in CC(=O)c1ccccc1 | -3.69
in CC(C)(C)O | -3.96
in CC(C)=O | -3.84
in CC(C)CC(C)(C)C | -4.6
in CC(C)CCCC(C)CCCC(C)CCCCC(C)CCCC(C)CCCC(C)C | -4.16
in CC(C)CCO | -3.97
in CC(C)CO | -3.92
in CC(C)O | -3.81
in CC(C)OC(C)C | -4.63
in CC(O)CO | -2.33
in CCBr | -4.71
in CCC(C)=O | -4.12
in CCCC#N | -3.69
in CCCC(=O)OCC | -4.35
in CCCC(C)=O | -4.17
in CCCC(C)O | -3.99
in CCCCC | -4.77
in CCCCC(CC)COC(=O)CCCCC(=O)OCC(CC)CCCC | -4.01
in CCCCC(CC)COC(=O)c1ccccc1C(=O)OCC(CC)CCCC | -3.79
in CCCCCC | -4.77
in CCCCCC(C)=O | -4.2
in CCCCCCCC | -4.62
in CCCCCCCCC | -4.57
in CCCCCCCCC=CCCCCCCCC(=O)OCC(COC(=O)CCCCCCCC=CCCCCCCCC)OC(=O)CCCCCCCC=CCCCCCCCC | -4.09
in CCCCCCCCCC | -4.53
in CCCCCCCCCCCC | -4.43
in CCCCCCCCCCCCCCCC | -4.34
in CCCCCCCCCCCCO | -3.99
in CCCCCCCCO | -4.02
in CCCCCCO | -4
in CCCCCCOC(C)=O | -4.27
in CCCCCl | -4.61
in CCCCN(C=O)CCCC | -3.9
in CCCCO | -3.95
in CCCCOC(=O)c1ccccc1C(=O)OCCCC | -3.88
in CCCCOC(C)=O | -4.23
in CCCCOCCCC | -4.57
in CCCCl | -4.81
in CCCO | -3.83
in CCN1CCCC1=O | -3.49
in CCN(CC)C(C)=O | -3.74
in CCN(CC)CC | -4.68
in CCNC(C)=O | -3.51
in CCNC=O | -3.25
in CCO | -3.7
in CCOC(=O)c1ccccc1C(=O)OCC | -3.35
in CCOC(C)(C)C | -4.62
in CCOC(C)=O | -4.09
in CCOCC | -4.66
in CCOCCO | -3.57
in CCOCCOCCOCC | -4.04
in CCOc1ccccc1 | -4.15
in CN1CCCC1=O | -3.2
in CN1CCCCC1=O | -3.41
in CN1CCN(C)C1=O | -3.1
in CN(C)C=O | -3.16
in CN(C)P(=O)(N(C)C)N(C)C | -3.67
in CNC(C)=O | -3.34
in CNC=O | -2.85
in CO | -3.39
in COC(C)(C)C | -4.68
in COC(C)=O | -3.89
in COCCO | -3.24
in COCCOCCOCCOCCOC | -3.41
in COc1ccccc1 | -4.06
in CS(C)=O | -2.27
in Cc1ccc(C)cc1 | -4.58
in Cc1cccc(O)c1 | -3.53
in Cc1ccccc1 | -4.57
in Cc1ccccn1 | -4.16
in ClC(Cl)(Cl)Cl | -4.81
in ClC(Cl)Cl | -4.64
in ClCCCl | -4.09
in ClCCl | -4.45
in Clc1ccccc1 | -4.56
in FC(F)(F)C(F)(F)C(F)(F)C(F)(F)C(F)(F)C(F)(F)C(F)(F)C(F)(F)F | -2.98
in FC(F)(F)C(F)(F)C(F)(F)C(F)(F)C(F)(F)C(F)(F)C(F)(F)F | -3.2
in FC(F)(F)C(F)(F)C(F)(F)C(F)(F)C(F)(F)C(F)(F)F | -3.06
in Fc1ccccc1 | -4.51
in ICI | -2.72
in N#CCCCCC#N | -2.45
in N#CCCOCCC#N | -1.99
in N#Cc1ccccc1 | -3.76
in NC=O | -0.97
in NCCO | -1.34
in Nc1ccccc1 | -2.99
in O=C1CCCCC1 | -4
in O=C1CCCO1 | -2.72
in O=C(O)C(Cl)Cl | -3.36
in O=CN1CCOCC1 | -2.52
in O=Cc1ccco1 | -2.96
in OCCCCCO | -2.53
in OCCCCO | -2.45
in OCCCO | -2.09
in OCCO | -1.22
in OCCOCCO | -1.9
in OCCOCCOCCO | -1.97
in OCCOCCOCCOCCO | -2.13
in OCCS | -2.46
in OCCc1ccccc1 | -3.37
in OCc1ccccc1 | -3.24
in OCc1ccco1 | -2.87
in S=C=S | -4.76
in c1ccc2c(c1)CCCC2 | -4.37
in c1ccc2ncccc2c1 | -3.86
in c1ccc(C2CCCCC2)cc1 | -4.33
in c1ccccc1 | -4.55
in c1ccncc1 | -3.9
